pIC50: −log10 of the molar value. Several values for one entry are separate records, joined by “and”; a condition that tells them apart may be missing. Equal entries are not always repeated.
System: Hs578T complex spheroid growth, percent test/control
Assay: Anticancer human tumor Hs578T cell line growth inhibition [AhR];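 further: luminescent viability signal as a proxy for spheroid growth; spheroids exposed to agents for one week after three days of growth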
Settings: for viability, T/C: stronger effect = lower value
Source text: Multicellular complex tumor spheroid response to aryl hydrocarbon receptor antagonists in combination with a variety of drugs and investigational agents in selected tumor cell lines
The current study was undertaken to assess response to aryl hydrocarbon receptor antagonists in combination with standard-of-care drugs and investigational agents in solid tumor complex spheroid models. Complex spheroids include a stromal component modeled by human endothelial cells (HUVEC) and fibroblasts modeled by human mesenchymal stem cells (MSCs). The concentration ranges selected for each drug and investigational agent were based upon clinically achievable concentrations if the clinical Cmax of the agent was known.
Compounds. The drugs and investigational agents: BAY 2416964 (NSC825713), GNF351 (NSC835774), CH-223191 (NSC835775), CPI-455 (NSC825282), aza-TdCyd (NSC777586), decitabine (NSC127716), belinostat (NSC758774), entinostat (NSC756642), pevonedistat (NSC761192), tazemetostat (NSC777109), talazoparib (NSC765396), olaparib (NSC753686), selinexor (NSC780203), nedisertib (M3814, NSC802822), bortezomib (NSC756655), venetoclax (NSC766270), doxorubicin (NSC123127), elimusertib (BAY189344, NSC800525), ceralasertib (AZD6738, NSC777638), TAK-243 (NSC785004), alisertib (NSC759677), etoposide (NSC141540), topotecan (NSC609699), eribulin (NSC707389), gemcitabine (NSC613327), carboplatin (NSC241240), cisplatin (NSC119875), and SN-38 (NSC673596) were obtained from the National Cancer Institute (NCI) Developmental Therapeutics Program Chemical Repository (32). The FDA-approved anticancer drug set is available from the Developmental Therapeutics Program at https://dtp.cancer.gov/organization/dscb/obtaining/available plates.htm. […] The stock solutions were prepared in dimethyl sulfoxide (DMSO, Sigma-Aldrich, St. Louis, MO, cat. D2650), except for the platinum compounds which were prepared in saline (Quality Biological, Gaithersburg, MD, cat. 114-055-101), at 800-fold the tested concentration and stored at -70 degrees C prior to their use. All drugs and investigational agents were tested over a range starting from a high concentration at or near the clinical Cmax and decreasing in half-log increments. If the clinical Cmax for an agent had not been determined, the highest concentration tested was 10 microM (Table 1).
Cell Culture. All cells were maintained in an incubator at 37 degrees C and 5% CO2 with 95% humidity. The PDC lines were cultured according to standard operating procedures established by the NCI PDMR (https://pdmr.cancer.gov). Briefly, all PDCs were thawed and cultured in Matrigel-coated flasks prepared with a working solution of 1X Ham's F-12 nutrient mix, without supplementation (Invitrogen, Waltham, MA, cat. 11765054), 100 U/mL penicillin-streptomycin (Invitrogen, cat. 15140122), and 2.5% Matrigel (Corning Inc., Corning, NY, cat. 354248) for the first three passages. All PDCs were cultured in complete DMEM/F-12 media containing advanced DMEM/F-12 (Invitrogen, cat. 12634028), 4.9% defined fetal bovine serum, heat inactivated (HyClone Laboratories Inc., Logan, UT, cat. SH30070.03HI), 389 ng/mL hydrocortisone (Sigma-Aldrich, cat. H4001), 9.7 ng/mL human EGF recombinant protein (Invitrogen, cat. PHG0313), 23.4 microg/mL adenine (Sigma-Aldrich, cat. A2786), 97.3 U/mL penicillin-streptomycin (Invitrogen, cat. 15140122), 1.9 mM L-glutamine (Invitrogen, cat. 25030081), and 9.7 microM Y-27632 dihydrochloride (Tocris Bioscience, Bristol, United Kingdom, cat. 1254). The PDCs were cultured in complete DMEM/F12 media without 10 microM Y-27632 dihydrochloride for at least two passages prior to the screen. The established cell lines NCI-H1341 and […] were cultured in DMEM/F-12, HEPES (Invitrogen, cat. 11330032), 5% defined fetal bovine serum (HyClone Laboratories Inc., cat. SH30070.03), ITS premix universal culture supplement [insulin (5 microg/mL), transferrin (5 microg/mL), and selenious acid (5 ng/mL)] […]

[1] = curve of first compound, second compound 0.1 µM
[2] = curve of first compound, second compound 0.316 µM
[3] = curve of first compound, second compound 1 µM
[4] = curve of first compound, second compound 3.16 µM
[5] = curve of first compound, second compound 10 µM
[6] = second compound 0.1 µM, first compound 0.0316 µM
[7] = second compound 0.1 µM, first compound 0.1 µM
[8] = second compound 0.1 µM, first compound 0.316 µM
[9] = second compound 0.1 µM, first compound 1 µM
[10] = second compound 0.316 µM, first compound 0.0316 µM
[11] = second compound 0.316 µM, first compound 0.1 µM
[12] = second compound 0.316 µM, first compound 0.316 µM
[13] = second compound 0.316 µM, first compound 1 µM
[14] = second compound 1 µM, first compound 0.0316 µM
[15] = second compound 1 µM, first compound 0.1 µM
[16] = second compound 1 µM, first compound 0.316 µM
[17] = second compound 1 µM, first compound 1 µM
[18] = second compound 3.16 µM, first compound 0.0316 µM
[19] = second compound 3.16 µM, first compound 0.1 µM
[20] = second compound 3.16 µM, first compound 0.316 µM
[21] = second compound 3.16 µM, first compound 1 µM
[22] = second compound 10 µM, first compound 0.0316 µM
[23] = second compound 10 µM, first compound 0.1 µM
[24] = second compound 10 µM, first compound 0.316 µM
[25] = second compound 10 µM, first compound 1 µM
[26] = second compound 0.1 µM, first compound 3.16 µM
[27] = second compound 0.1 µM, first compound 10 µM
[28] = second compound 0.316 µM, first compound 3.16 µM
[29] = second compound 0.316 µM, first compound 10 µM
[30] = second compound 1 µM, first compound 3.16 µM
[31] = second compound 1 µM, first compound 10 µM
[32] = second compound 3.16 µM, first compound 3.16 µM
[33] = second compound 3.16 µM, first compound 10 µM
[34] = second compound 10 µM, first compound 3.16 µM
[35] = second compound 10 µM, first compound 10 µM

In the case of `CC1COCCN1c1cc(-c2ccnn2C)c2ccnc(-c3ccn[nH]3)c2n1` (configuration not stated) + CC(CO)NC(=O)c1cc(-c2ccc(Cl)cc2)nn(-c2cnn(C)c2)c1=O, the pIC50 [1] was 6.28, the pIC50 [2] was 6.11 and the pIC50 [3] was 6.21. For the same compound, the pIC50 [4] was 6.42, the pIC50 [5] was 6.07 and the viability, T/C (second compound 0.1 µM, first compound 0.00316 µM) was 118%. The viability, T/C (second compound 0.1 µM, first compound 0.01 µM) was 117%, the viability, T/C [6] was 114% and the viability, T/C [7] was 91.9%. The viability, T/C [8] was 53.6%, the viability, T/C [9] was 45.4% and the viability, T/C (second compound 0.316 µM, first compound 0.00316 µM) was 133%. It also gave a viability, T/C (second compound 0.316 µM, first compound 0.01 µM) of 124%, a viability, T/C [10] of 112% and a viability, T/C [11] of 96%. For the same compound, the viability, T/C [12] was 59.7%, the viability, T/C [13] was 47.8% and the viability, T/C (second compound 1 µM, first compound 0.00316 µM) was 123%. It also gave a viability, T/C (second compound 1 µM, first compound 0.01 µM) of 126%, a viability, T/C [14] of 122% and a viability, T/C [15] of 89.8%. It also gave a viability, T/C [16] of 56.2%, a viability, T/C [17] of 45.5% and a viability, T/C (second compound 3.16 µM, first compound 0.00316 µM) of 121%. For the same compound, the viability, T/C (second compound 3.16 µM, first compound 0.01 µM) was 122%, the viability, T/C [18] was 121% and the viability, T/C [19] was 86.9%. It also gave a viability, T/C [20] of 51.6%, a viability, T/C [21] of 46.2% and a viability, T/C (second compound 10 µM, first compound 0.00316 µM) of 121%. It also gave a viability, T/C (second compound 10 µM, first compound 0.01 µM) of 124%, a viability, T/C [22] of 115% and a viability, T/C [23] of 74.5%. For the same compound, the viability, T/C [24] was 57.6% and the viability, T/C [25] was 45.9%.
In the case of `CC(C)c1c(-c2ccccc2)nc2c(C#N)c[nH]n2c1=O` + Cc1ccccc1N=Nc1ccc(NC(=O)c2ccnn2C)c(C)c1, the pIC50 [1] was less than 5.00, the pIC50 [2] was less than 5.00 and the pIC50 [3] was less than 5.00. It also gave a pIC50 [4] of less than 5.00, a pIC50 [5] of less than 5.00 and a viability, T/C [6] of 102%. The viability, T/C [7] was 99.4%, the viability, T/C [8] was 108% and the viability, T/C [9] was 103%. It also gave a viability, T/C [26] of 91.4%, a viability, T/C [27] of 100% and a viability, T/C [10] of 105%. The viability, T/C [11] was 113%, the viability, T/C [12] was 119% and the viability, T/C [13] was 99%. The viability, T/C [28] was 112%, the viability, T/C [29] was 104% and the viability, T/C [14] was 103%. It also gave a viability, T/C [15] of 103%, a viability, T/C [16] of 106% and a viability, T/C [17] of 101%. For the same compound, the viability, T/C [30] was 105%, the viability, T/C [31] was 96.6% and the viability, T/C [18] was 96%. It also gave a viability, T/C [19] of 94.7%, a viability, T/C [20] of 97.1% and a viability, T/C [21] of 88.1%. It also gave a viability, T/C [32] of 91.1%, a viability, T/C [33] of 96% and a viability, T/C [22] of 64.4%. The viability, T/C [23] was 66%, the viability, T/C [24] was 70.1% and the viability, T/C [25] was 71.2%. It also gave a viability, T/C [34] of 69.4% and a viability, T/C [35] of 67.6%.
Compound `CC1COCCN1c1cc(C2(S(C)(=N)=O)CC2)nc(-c2ccnc3[nH]ccc23)n1` (configuration not stated) + Cc1cncc(-c2nc(NCCc3c[nH]c4ccccc34)c3ncn(C(C)C)c3n2)c1 has a pIC50 [1] of less than 5.00, a pIC50 [2] of less than 5.00 and a pIC50 [3] of less than 5.00. For the same compound, the pIC50 [4] was less than 5.00, the pIC50 [5] was greater than 7.50 and the viability, T/C [6] was 120%. The viability, T/C [7] was 115%, the viability, T/C [8] was 111% and the viability, T/C [9] was 102%. For the same compound, the viability, T/C [26] was 92.1%, the viability, T/C [27] was 66.2% and the viability, T/C [10] was 119%. It also gave a viability, T/C [11] of 119%, a viability, T/C [12] of 116% and a viability, T/C [13] of 113%. It also gave a viability, T/C [28] of 105%, a viability, T/C [29] of 60.4% and a viability, T/C [14] of 106%. It also gave a viability, T/C [15] of 107%, a viability, T/C [16] of 118% and a viability, T/C [17] of 111%. It also gave a viability, T/C [30] of 98.2%, a viability, T/C [31] of 62.5% and a viability, T/C [18] of 62.5%. The viability, T/C [19] was 57.2%, the viability, T/C [20] was 59.1% and the viability, T/C [21] was 64.5%. The viability, T/C [32] was 55.3%, the viability, T/C [33] was 43.3% and the viability, T/C [22] was 8.31%. It also gave a viability, T/C [23] of 8.78%, a viability, T/C [24] of 9.14% and a viability, T/C [25] of 8%. It also gave a viability, T/C [34] of 9.08% and a viability, T/C [35] of 11.8%.
With `CC1(C)CCC(CN2CCN(c3ccc(C(=O)NS(=O)(=O)c4ccc(NCC5CCOCC5)c([N+](=O)[O-])c4)c(Oc4cnc5[nH]ccc5c4)c3)CC2)=C(c2ccc(Cl)cc2)C1` the viability, T/C (compound 0.0316 µM) was 103% and 111% and 99.9%, the viability, T/C (compound 0.1 µM) was 110% and 109% and 97.8% and the viability, T/C (compound 0.316 µM) was 112% and 104% and 99.2%. For the same compound, the viability, T/C (compound 1 µM) was 91% and 103% and 92.9%, the viability, T/C (compound 3.16 µM) was 101% and 97.7% and 82.6% and the viability, T/C (compound 10 µM) was 84% and 62.3% and 78.2%. It also gave a pIC50 (curve of compound) of less than 5.00.

From PubChem BioAssay AID1919010 (Molecular Pharmacology Branch, DTP, NCI, 2023)
